Source: PubChem BioAssay (NCI)
Where “and” joins values, the source holds several entries; their conditions need not be identical. Equal values may be shown once.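 Tested at 5 concentrations; 48 h exposure; 96-well plates; endpoints linearly interpolated, else capped at highest concentration. At the GI50, growth is halved. At the TGI there is no net growth.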

How the values were obtained:
Assay in all cases: NCI anticancer screen, dose series, 48 h
CAKI-1 renal = system: CAKI-1 renal
COLO 205 colon = system: COLO 205 colon
KM12 colon = system: KM12 colon
NCI/ADR-RES ovarian = system: NCI/ADR-RES ovarian
OVCAR-8 ovarian = system: OVCAR-8 ovarian
SF-295 CNS = system: SF-295 CNS
SK-MEL-5 melanoma = system: SK-MEL-5 melanoma
SN12C renal = system: SN12C renal
SNB-75 CNS = system: SNB-75 CNS
SW-620 colon = system: SW-620 colon

Structure (SMILES) | GI50 (CAKI-1 renal) [µM] | TGI (CAKI-1 renal) [µM] | GI50 (COLO 205 colon) [µM] | TGI (COLO 205 colon) [µM] | GI50 (KM12 colon) [µM] | TGI (KM12 colon) [µM] | GI50 (NCI/ADR-RES ovarian) [µM] | TGI (NCI/ADR-RES ovarian) [µM] | GI50 (OVCAR-8 ovarian) [µM] | TGI (OVCAR-8 ovarian) [µM] | GI50 (SF-295 CNS) [µM] | TGI (SF-295 CNS) | GI50 (SK-MEL-5 melanoma) [µM] | TGI (SK-MEL-5 melanoma) | GI50 (SN12C renal) [µM] | TGI (SN12C renal) [µM] | GI50 (SNB-75 CNS) [µM] | TGI (SNB-75 CNS) | GI50 (SW-620 colon) [µM] | TGI (SW-620 colon) [µM]
Nc1nccc(-c2c(-c3ccc(F)cc3)ncn2CCCN2CCOCC2)n1 | > 25 | > 25 | > 25 | > 25 | > 25 | > 25 | > 25 | > 25 | > 25 | > 25 | > 25 | > 25 µM | > 25 | > 25 µM | > 25 | > 25 | > 25 | > 25 µM | > 25 | > 25
COc1cc([N+](=O)[O-])ccc1NC(=O)C(F)(F)F |  | > 100 |  | > 100 |  | > 100 |  | > 100 |  | > 100 |  | > 100 µM |  | > 100 µM |  | > 100 |  | > 100 µM |  | > 100
O=C(O)C(Sc1ccc(Cl)cc1)Sc1ccc(Cl)cc1 |  | > 100 |  | 59 |  | > 100 |  | > 100 |  | > 100 |  | > 100 µM |  | > 100 µM |  | > 100 |  | > 100 µM |  | > 100
COc1ccc(C2CC(=O)c3c(OC)cc(OC)cc3O2)cc1 (stereo not drawn) | > 100 | > 100 | > 100 | > 100 | > 100 | > 100 | > 100 | > 100 | > 100 | > 100 | > 100 | > 100 µM | > 100 | > 100 µM | > 100 | > 100 | > 100 | > 100 µM | > 100 | > 100
COc1cc2c3c(n(CCCBr)c(=O)c2cc1OC)-c1ccc(NC(C)=O)cc1C3=O | 1.09 | 7.21 | 14.1 | > 100 | 7.35 | > 100 | 39.4 | > 100 | 18.7 | > 100 | 0.828 | 11.5 µM | 2.45 | 13.7 µM | 13.9 | > 100 | 12.1 | 54 µM | 0.963 | > 100
CC(C)CC(N)C(=O)O (stereo not drawn) |  | > 100 |  | > 100 |  | > 100 |  | > 100 |  | > 100 |  | > 100 µM |  | > 100 µM |  | > 100 |  | > 100 µM |  | > 100
COC(=O)[C@]12CCC(C)(C)C[C@H]1C1=CC[C@@H]3[C@@]4(C)C/C(=C/c5cccnc5)C(=O)C(C)(C)[C@@H]4CC[C@@]3(C)[C@]1(C)CC2 | 6.87 | 22.3 | 6.51 | 25.3 | 5.06 | 19.9 | 6.75 | 32.5 | 3.82 | 60.8 | 9.67 | 40.4 µM | 5.58 | 17.9 µM | 4.86 | 23.4 | 17.6 | 48.5 µM | 5.74 | 33.3
CC(C)(C)C1=CC(=CC=C2C=CN(CCCCCCCCCCCO)C=C2)C=C(C(C)(C)C)C1=O |  | 6.7 |  | 2.82 |  | 4.4 |  | 11.7 |  | 2.1 |  | 2.95 µM |  | 3.31 µM |  | 2.73 |  | 5.4 µM |  | 3.08
CC(C)(C)OC(=O)N(CCCN(CCn1c2c(c3ccccc3c1=O)C(=O)c1ccccc1-2)C(=O)OC(C)(C)C)CCn1c2c(c3ccccc3c1=O)C(=O)c1ccccc1-2 | > 50 | > 50 | > 50 | > 50 | > 50 | > 50 | > 50 | > 50 | 34.9 | > 50 | 15.3 | > 50 µM | > 50 | > 50 µM | > 50 | > 50 |  |  | 40.7 | > 50
Cn1cc(-c2csc(-c3cccc(F)c3)n2)c2cccnc21 | 16.2 | 40.5 | 15.7 | 30.1 | 16 | 29.5 | 20.3 | 50.2 | 26.5 | 64.3 | 14.9 | 33.7 µM | 15.7 | 30.4 µM | 15.6 | 29.5 | 35.7 | > 100 µM | 16.7 | 30.5
Cc1cc(C)cc(Nc2cc(C)nc3nc(C(F)(F)F)nn23)c1 | > 100 | > 100 | > 100 | > 100 | > 100 | > 100 | > 100 | > 100 | > 100 | > 100 | 32.3 | > 100 µM | > 100 | > 100 µM | > 100 | > 100 | 25.2 | > 100 µM | > 100 | > 100
N#C/C(C(=S)Nc1ccccc1)=C1/NN=C2c3ccccc3C(=O)NN21 | 34.7 | > 100 | 24.9 | > 100 | 16.1 | 58.4 | 20.6 | 58.8 | 32 | > 100 | 17.1 | 49.5 µM | 17 | 41.1 µM | 40.7 | > 100 | 16.6 | 43.5 µM | 28.7 | > 100
Cc1cc(C2CCCCC2)n(O)c(=O)c1 | 1.8 | 21.4 | 4.46 | > 100 | 2.53 | > 100 | 1.22 | 14.9 | 1.92 | > 100 | 0.81 | 86.8 µM and > 100 µM | 1.49 | 7.38 µM and 38.3 µM | 1.45 | > 100 | 1.96 | > 100 µM and 58.1 µM | 3.38 | > 100
Cc1[nH]c(N=Nc2ccccc2)nc1N=Nc1ccccc1 | 1.04 | 3.48 | 2.96 | 13.1 | 3.98 | > 93.2 | 2.78 | 27.3 | 3.2 | 53.1 | 1.93 | 11.6 µM | 2.41 | 7.83 µM | 3.51 | 22.4 | 1.66 | 12.5 µM | 4.7 | > 56.7
